Series [1] deals with velvetleaf (Abutilon theophrasti). Briefly: General postemergence herbicidal activity, ABUTH. It is filed as in vivo. Particulars: Abutilon theophrasti, post-emergence, 336 h, postemergence spray, visual score after 14 days, 0 = no injury, 100 = complete kill, read-out: Post-emergent Weed Control ABUTH; for pest or weed control at 140 g/ha: 140 g ai/ha. Summed up: (§1)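 Visual injury relative to untreated plants was rated 0 to 100 percent at 14 days after treatment. Seedlings at the first or second true leaf stage had received an overhead spray at 187 L/ha of compound formulated with crop oil concentrate and Triton X-155. Solvent-blank sprayed plants served as controls.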

The subject of series [2] is wild poinsettia (Euphorbia heterophylla). Kind of series: General preemergence herbicidal activity, EPHHL. The format is in vivo. The note with it: applied to soil surface, visual score after 20-22 days, 0 = no injury, 100 = complete kill or no emergence, read-out: Pre-emergent Weed Control EPHHL; for pest or weed control at 140 g/ha: 140 g ai/ha. An excerpt:
(§2) Seeds of the desired test plant species were planted in a soil matrix prepared by mixing a loam soil (43 percent silt, 19 percent clay, and 38 percent sand, with a pH of about 8.1 and an organic matter content of about 1.5 percent) and sand in a 70 to 30 ratio. The soil matrix was contained in plastic pots with a surface area of 127 square centimeters. When required to ensure good germination and healthy plants, a fungicide treatment and/or other chemical or physical treatment was applied. A weighed amount, determined by the highest rate to be tested, of each test compound was placed in a 25 mL glass vial and was dissolved in 6 mL of a 97:3 v/v (volume/volume) mixture of acetone and DMSO to obtain concentrated stock solutions. […] The stock solutions obtained were diluted with 18 mL of a 0.1% v/v aqueous solution of Tween® 20 surfactant to obtain spray solutions containing the highest application rate. Additional application rates were obtained by serial dilution of 12 mL of the high rate solution into a solution containing 3 mL of 97:3 v/v mixture of acetone and DMSO and 9 mL of the 0.1% v/v aqueous solution of Tween® 20 surfactant to obtain 1/2X, 1/4X, 1/8X and 1/16X rates of the high rate. Compound requirements are based upon a 12 mL application volume at a rate of 187 L/ha. Formulated compounds were applied to the soil surface with an overhead Mandel track sprayer equipped with a […] nozzles calibrated to deliver 187 L/ha over an application area of 0.503 square meters at a spray height of 18 inches (43 cm) above the soil surface. Control pots were sprayed in the same manner with the solvent blank. The treated pots and control pots were placed in a greenhouse maintained with an approximate 15 hour photoperiod and temperatures of about 23-29° C. during the day and 22-28° C. during the night. Nutrients and water were added on a regular basis and supplemental lighting was provided with overhead metal halide 1000-Watt lamps as necessary. The water was added by top-irrigation. After 20-22 days, the condition of the test plants that germinated and grew as compared with that of the untreated plants that emerged and grew was determined visually and scored on a scale of 0 to 100 percent where 0 corresponds to no injury and 100 corresponds to complete kill or no emergence.

Series [3] concerns velvetleaf (Abutilon theophrasti). Briefly: General preemergence herbicidal activity, ABUTH. It is filed as in vivo. Particulars: applied to soil surface, visual score after 20-22 days, 0 = no injury, 100 = complete kill or no emergence, read-out: Pre-emergent Weed Control ABUTH; for pest or weed control at 140 g/ha: 140 g ai/ha.
Description: as §2

In series [4] the test system is lambsquarter (Chenopodium album). Briefly: General postemergence herbicidal activity, CHEAL. The format is in vivo. Particulars: Chenopodium album, post-emergence, 336 h, postemergence spray, visual score after 14 days, 0 = no injury, 100 = complete kill, read-out: Post-emergent Weed Control CHEAL; for pest or weed control at 140 g/ha: 140 g ai/ha. Summed up: as §1

Series [5] relates to rice (Oryza sativa). Kind of series: General preemergence herbicidal activity, ORYSA. It is filed as in vivo. The note with it: applied to soil surface, visual score after 20-22 days, 0 = no injury, 100 = complete kill or no emergence, read-out: Pre-emergent Weed Control ORYSA; for plant injury at 140 g/ha: 140 g ai/ha.
Description: as §2

Series [6] has as its system wild poinsettia (Euphorbia heterophylla). Kind of series: General postemergence herbicidal activity, EPHHL. The note with it: Euphorbia heterophylla, post-emergence, 336 h, postemergence spray, visual score after 14 days, 0 = no injury, 100 = complete kill, read-out: Post-emergent Weed Control EPHHL; for pest or weed control at 140 g/ha: 140 g ai/ha. The format is in vivo. Summed up:
as §1

Series [7] has as its system barnyardgrass (Echinochloa crus-galli). Briefly: General postemergence herbicidal activity, ECHCG. It is filed as in vivo. Particulars: Echinochloa crus-galli, post-emergence, 336 h, postemergence spray, visual score after 14 days, 0 = no injury, 100 = complete kill, read-out: Post-emergent Weed Control ECHCG; for pest or weed control at 140 g/ha: 140 g ai/ha. The method, boiled down:
as §1

For series [8] the test system is unchanged. Briefly: General preemergence herbicidal activity, ECHCG. The format is in vivo. The note with it: applied to soil surface, visual score after 20-22 days, 0 = no injury, 100 = complete kill or no emergence, read-out: Pre-emergent Weed Control ECHCG; for pest or weed control at 140 g/ha: 140 g ai/ha.
Description: as §2

In series [9] the test system is rice (Oryza sativa). Briefly: General postemergence herbicidal activity, ORYSA. The format is in vivo. Particulars: Oryza sativa, post-emergence, 336 h, postemergence spray, visual score after 14 days, 0 = no injury, 100 = complete kill, read-out: Post-emergent Weed Control ORYSA; for plant injury at 140 g/ha: 140 g ai/ha. Summed up: as §1
For series [10], the system named is lambsquarter (Chenopodium album). Kind of series: General preemergence herbicidal activity, CHEAL. The note with it: applied to soil surface, visual score after 20-22 days, 0 = no injury, 100 = complete kill or no emergence, read-out: Pre-emergent Weed Control CHEAL; for pest or weed control at 140 g/ha: 140 g ai/ha. It is filed as in vivo.
Description: as §2

For 6 molecules, pest or weed control, plant injury and melting point results are on record in patent publication US8658791B2, “2-substituted-6-amino-5-alkyl, alkenyl or alkynyl-4-pyrimidinecarboxylic acids and 6-substituted-4-amino-3-alkyl, alkenyl or alkynyl picolinic acids and their use as herbicides” (Dow AgroSciences, LLC, priority 2007, dated 2014).

Broadly, the melting point is the temperature of the solid-liquid transition. In turn, `COC(=O)c1nc(-c2ccc(Cl)c(OC)c2F)nc(N)c1C` [Compound 2, 6-Amino-2-(4-chloro-2-fluoro-3-methoxyphenyl)-5-methylpyrimidine-4-carboxylic acid methyl ester] gave a melting point of 168 to 170 °C. The pest or weed control at 280 g/ha in series [1] (280 g ai/ha) was found to be 95%. The pest or weed control at 140 g/ha in series [2] was determined as 95%. In addition, the pest or weed control at 140 g/ha in series [3] was 40%. Further, in series [4] (280 g ai/ha), the pest or weed control at 280 g/ha was 100%. Further, the plant injury at 140 g/ha with rice (Oryza sativa) [5] is 15%. Moreover, the pest or weed control at 280 g/ha in series [6] (280 g ai/ha) was found to be 100%. Also, the pest or weed control at 280 g/ha in series [7] (280 g ai/ha) was found to be 95%. For the same molecule, in series [8], the pest or weed control at 140 g/ha came to 0%. Moreover, the plant injury at 280 g/ha in the series with rice (Oryza sativa) [9] (280 g ai/ha) amounted to 0%. Further, the pest or weed control at 140 g/ha in series [10] is 80%.
The molecule `C=Cc1c(N)nc(C2CC2)nc1C(=O)OCC` [Compound 4, 6-Amino-2-cyclopropyl-5-vinylpyrimidine-4-carboxylic acid ethyl ester] returned a melting point of 155 to 157 °C. For the same molecule, the pest or weed control at 140 g/ha in series [1] was determined as 100%. The pest or weed control at 280 g/ha in [2] (280 g ai/ha) amounted to 100%. Besides, in [3] (280 g ai/ha), the pest or weed control at 280 g/ha was 90%. For the same molecule, the pest or weed control at 140 g/ha in [4] was 100%. Further, the plant injury at 280 g/ha with rice (Oryza sativa) [5] (280 g ai/ha) is 0%. For the same molecule, the pest or weed control at 140 g/ha in series [6] is 100%. In addition, in series [7], the pest or weed control at 140 g/ha worked out at 0%. The pest or weed control at 280 g/ha in series [8] (280 g ai/ha) was 50%. Besides, in the series on rice (Oryza sativa) [9], the plant injury at 140 g/ha worked out at 0%. Besides, in series [10] (280 g ai/ha), the pest or weed control at 280 g/ha is 100%.
Molecule `C=Cc1c(N)nc(-c2ccc(Cl)cc2F)nc1C(=O)OC` [Compound 5, 6-Amino-2-(4-chloro-2-fluorophenyl)-5-vinylpyrimidine-4-carboxylic acid methyl ester] registered a melting point of 137 to 139 °C. For the same molecule, the pest or weed control at 140 g/ha in [1] was determined as 100%. In addition, the pest or weed control at 140 g/ha in series [2] came to 90%. The pest or weed control at 140 g/ha in series [3] is 100%. Further, the pest or weed control at 140 g/ha in series [4] amounted to 100%. For the same molecule, in the series with rice (Oryza sativa) [5], the plant injury at 140 g/ha came to 10%. Besides, the pest or weed control at 140 g/ha in series [6] was 100%. For the same molecule, the pest or weed control at 140 g/ha in series [7] was 80%. For the same molecule, the pest or weed control at 140 g/ha in series [8] turned out to be 0%. For the same molecule, in the series on rice (Oryza sativa) [9], the plant injury at 140 g/ha was determined as 5%. In addition, in series [10], the pest or weed control at 140 g/ha was 95%.
`C=Cc1c(N)nc(-c2ccc(Cl)cc2F)nc1C(=O)O` [Compound 42, 6-Amino-2-(4-chloro-2-fluorophenyl)-5-vinylpyrimidine-4-carboxylic acid] came in with a melting point of 167 to 169 °C. Moreover, the pest or weed control at 140 g/ha in [2] is 100%. The pest or weed control at 140 g/ha in series [3] amounted to 100%. The plant injury at 140 g/ha with rice (Oryza sativa) [5] amounted to 10%. In addition, the pest or weed control at 140 g/ha in [8] is 30%. For the same molecule, the pest or weed control at 140 g/ha in series [10] was 100%.
With `C/C=C\c1c(N)nc(-c2ccc(Cl)c(OC)c2F)nc1C(=O)O` [Compound 55, 6-Amino-2-(4-chloro-2-fluoro-3-methoxyphenyl)-5-((Z)-propenyl)pyrimidine-4-carboxylic acid], the pest or weed control at 70 g/ha in series [1] (70 g ai/ha), in [4] (70 g ai/ha), in series [6] (70 g ai/ha) and in series [7] (70 g ai/ha) was 100% in each case. Besides, the pest or weed control at 140 g/ha in series [2] turned out to be 100%; in series [3] it was 100%; in series [8], 60%; in series [10], 100%. Besides, the plant injury at 140 g/ha in the series with rice (Oryza sativa) [5] was determined as 30%. Moreover, the plant injury at 70 g/ha with rice (Oryza sativa) [9] (70 g ai/ha) amounted to 15%.
Take `C=Cc1c(N)cc(-c2ccc(Cl)c(OC)c2F)nc1C(=O)O` [Compound 59, 4-Amino-6-(4-chloro-2-fluoro-3-methoxyphenyl)-3-vinylpyridine-2-carboxylic acid]: the pest or weed control at 140 g/ha in series [1], in series [2], in series [3], in [4], in [6] and in [7] was 100% throughout. In addition, the pest or weed control at 140 g/ha in [8] and in [10] was 100% each time. In addition, the plant injury at 140 g/ha in the series with rice (Oryza sativa) [5] and with rice (Oryza sativa) [9] was 0% in each case.
